Results: patent US8167991B2, “Trisazo compound, ink composition, recording method, and colored article” (Nippon Kayaku Kabushiki Kaisha, priority 2006, dated 2012)

Test: Solubility of the dye compound
Format: physicochemical
Details: compound obtained as a sodium salt; read-out: solubility

Q: For CS(=O)(=O)O.Cc1cc(N=Nc2c(-c3ccccc3)c(C#N)c3nc4ccccc4n3c2O)c(OCCCS(=O)(=O)O)cc1N=Nc1ccc(N=Nc2ccc(S(=O)(=O)O)cc2)cc1S(=O)(=O)O [Compound No. 4], which solubility is on record?
A: ≥ 100 mg/mL

Q: With CS(=O)(=O)O.Cc1cc(N=Nc2c(C)c(C#N)c3nc4ccccc4n3c2O)c(OCCCS(=O)(=O)O)cc1N=Nc1cc(C)c(N=Nc2ccc(S(=O)(=O)O)cc2C(=O)O)cc1OCCCS(=O)(=O)O [Compound No. 6] as the compound, how does the solubility read?
A: ≥ 100 mg/mL

Q: Which solubility does the source give for CS(=O)(=O)O.Cc1cc(N=Nc2c(C)c(C(N)=O)c3nc4ccccc4n3c2O)c(OCCCS(=O)(=O)O)cc1N=Nc1cc(C)c(N=Nc2ccc(S(=O)(=O)O)cc2C(=O)O)cc1OCCCS(=O)(=O)O [Compound No. 7] here?
A: ≥ 100 mg/mL

Q: Which solubility does the source give for Cc1cc(N=Nc2c(S(=O)(=O)O)cc3c(S(=O)(=O)O)c(N=Nc4cc(S(=O)(=O)O)c5cc(S(=O)(=O)O)c(N=Nc6ccc([N+](=O)[O-])cc6S(=O)(=O)O)c(O)c5c4N)ccc3c2O)c(OCCCS(=O)(=O)O)cc1N=Nc1cc(C)c(N=Nc2ccc(S(=O)(=O)O)c3cc(S(=O)(=O)O)cc(O)c23)cc1OCCCS(=O)(=O)O [formula (75)] here?
A: ≥ 100 mg/mL

Q: With CCCc1c(N=Nc2cc(C)c(N=Nc3ccc(N=Nc4ccc(S(=O)(=O)O)cc4)cc3S(=O)(=O)O)cc2OCCCS(=O)(=O)O)c(O)n2c(nc3ccccc32)c1C#N.CS(=O)(=O)O [Compound No. 3] as the compound, how does the solubility read?
A: ≥ 100 mg/mL

Q: With CS(=O)(=O)O.Cc1cc(N=Nc2c(C)c(C#N)c3nc4ccccc4n3c2O)c(OCCCCS(=O)(=O)O)cc1N=Nc1ccc(N=Nc2ccc(S(=O)(=O)O)cc2)cc1S(=O)(=O)O [Compound No. 20] as the compound, how does the solubility read?
A: ≥ 100 mg/mL

Same assay, conditions: water; read-out: solubility in water

Q: With Nc1c(N=Nc2ccc3c(O)c(N=Nc4ccc5c(O)c(N=Nc6ccc(N=Nc7ccc(S(=O)(=O)O)cc7)cc6S(=O)(=O)O)c(S(=O)(=O)O)cc5c4S(=O)(=O)O)c(S(=O)(=O)O)cc3c2S(=O)(=O)O)cc(S(=O)(=O)O)c2cc(S(=O)(=O)O)c(N=Nc3ccc([N+](=O)[O-])cc3S(=O)(=O)O)c(O)c12 [formula (II-56)] as the compound, how does the solubility read?
A: ≥ 100 mg/mL

Q: For Cc1cc(N=Nc2c(S(=O)(=O)O)cc3c(S(=O)(=O)O)c(N=Nc4c(S(=O)(=O)O)cc5c(S(=O)(=O)O)c(N=Nc6cc(S(=O)(=O)O)c7cc(S(=O)(=O)O)c(N=Nc8ccc([N+](=O)[O-])cc8S(=O)(=O)O)c(O)c7c6N)ccc5c4O)ccc3c2O)c(OCCCS(=O)(=O)O)cc1N=Nc1cc(C(=O)O)cc(C(=O)O)c1 [formula (II-61)], which solubility is on record?
A: ≥ 100 mg/mL

Q: Which solubility does the source give for Cc1cc(N=Nc2c(S(=O)(=O)O)cc3c(S(=O)(=O)O)c(N=Nc4c(S(=O)(=O)O)cc5c(S(=O)(=O)O)c(N=Nc6cc(S(=O)(=O)O)c7cc(S(=O)(=O)O)c(N=Nc8ccc([N+](=O)[O-])cc8S(=O)(=O)O)c(O)c7c6N)ccc5c4O)ccc3c2O)c(OCCCS(=O)(=O)O)cc1N=Nc1cc(S(=O)(=O)O)cc2cc(S(=O)(=O)O)cc(O)c12 [formula (II-59)] here?
A: ≥ 100 mg/mL

Q: For Nc1c(N=Nc2ccc3c(O)c(N=Nc4ccc5c(O)c(N=Nc6ccc(N=Nc7ccc(S(=O)(=O)O)cc7)cc6S(=O)(=O)O)c(S(=O)(=O)O)cc5c4S(=O)(=O)O)c(S(=O)(=O)O)cc3c2S(=O)(=O)O)cc(S(=O)(=O)O)c2cc(S(=O)(=O)O)c(N=Nc3ccc(S(=O)(=O)O)cc3[N+](=O)[O-])c(O)c12 [formula (II-57)], which solubility is on record?
A: ≥ 100 mg/mL
